Experimental data as given in patent EP0434750B1 (priority 1988, dated 1990).
“And” between values parts separate entries of the source, which are not always exact repeats. Identical values can stand only once.

Columns and labels:
[1] = system: crude striatal synaptosomal suspensions; test: In vitro accumulation of [3H]DA by crude striatal synaptosomal suspensions; assay type: biochemical, mice; settings: striatal synaptosomes of control mice; read-out: Km(µm) of [^3H]DA uptake
Experimental: All other studies are performed in C57 black mice.
The in vitro accumulation of [^3H]DA by crude striatal synaptosomal suspensions is measured using the method of Snyder, S.H. et al., J.Pharmacol.Exp.Ther. 165, 78 (1968) with minor modifications. Briefly, crude synaptosomal suspensions are prepared by homogenizing striatal tissue in 50 vols. (w/v) of ice-cold 0.32 M sucrose, then centrifuging the homogenate for 10 minutes at 1,000 x g. […] After vortexing, tubes (except temperature blanks) are incubated in a waterbath at 37°C for five minutes, then returned to ice. Synaptosomes are harvested by filtration. Filters are rinsed twice with 5 ml aliquots of physiological saline. Radioactivity in the filters is quantified by liquid scintillation spectroscopy. Assays are performed in sextuplicate at each DA concentration, with half of the samples serving as blanks. Active uptake is defined as the difference between [^3H]DA (PM/mg tissue/5 min.) incubation at 37°C after correction for uptake at 0-4°C.

C57 black mice = test: Silver degeneration study of striatal nerve terminals (Fink-Heimer); assay type: in vivo; settings: pretreated with 25 mg/kg of pargyline, then MPTP 20 mg/kg/h x 4
Experimental: Nerve terminal degeneration studies are performed using the method of Fink, R.P. et al., Brain Research 4, 369 (1967) (Procedure 1). This method makes possible selective silver impregnation of degenerating nerve fibers and terminals. Mice for these studies are killed under sodium pentobarbital anesthesia (40 mg/kg) by transcardial perfusion with 10% formal saline. The brain is immediately removed and stored in perfusion fluid at 0-4°C for at least one week before being sectioned on a freezing microtomee. 30 µm coronal sections are collected in 5% formal saline, then stained with silver according to Fink et al., supra.
Some fine granular degeneration is also found in the nucleus accumbens and olfactory tubercle, but in these regions it was much less dense. No such degeneration is found in identically treated sections of control mice, or in other brain regions visible in coronal brain sections at the level of the striatum.

[2] = cynomolgus monkey, in vivo
Experimental: (§1) Thirteen male monkeys (Macaca fascicularis) 5 to 8 years old, weighing 3.5 to 4.8 kg, are studied. […] Nine receive daily (0.35 mg per kg) injections of MPTP i.v. for four days. Three animals (M1-3) who received no chloroquine are the untreated controls. Six animals are pretreated with chioroquine (4 mg per kg) intramuscularly; three (S1-3) are pretreated for 12 days, and three (L1-3) for 24 days. All six pretreated animals continue to receive chloroquine injections during MPTP administration and for 10 days following MPTP exposure.
Detection is done electrochemically on a glassy carbon electrode (Bioanalytical Systems Inc.) at an applied voltage of 0.65 V. Plasma levels of chloroquine are determined by HPLC with UV detection. Samples are deproteinated with 0.2 vol. of 25% trichloroacetic acid followed by centrifugation at 4°C for 30 minutes at 1,000 g. Supernatants are removed, lyophilized overnight and reconstituted with 80 µl of 0.1 M perchloric acid. Samples are analyzed directly using reverse-phase HPLC with a Whatman ODS-3 column (Whatman) and Pellosil C8 guard column (Alltech). […] Absorption is detected at 343 nm (Bergqvist, Y. et al., Chromat. 221, 2503 (1985)). […] The aqueous and organic phases are allowed to separate and the ^3H2O extracted into the organic phase determined.

[3] = system: monkeys (Macaca fascicularis); test: Dopamine and homovanillic acid levels in monkey brain samples (HPLC); assay type: in vivo; settings: short-term chloroquine and MPTP; monkeys S1-3
[4] = system: Tyrosine hydroxylase (TH); test: Tyrosine hydroxylase activity in monkey brain homogenate (tritium release method); assay type: in vivo, Macaca fascicularis; settings: short-term chloroquine and MPTP; monkeys S1-3
Experimental: as §1
Detection is done electrochemically on a glassy carbon electrode (Bioanalytical Systems Inc.) at an applied voltage of 0.65 V. Plasma levels of chloroquine are determined by HPLC with UV detection. Samples are deproteinated with 0.2 vol. of 25% trichloroacetic acid followed by centrifugation at 4°C for 30 minutes at 1,000 g. Supernatants are removed, lyophilized overnight and reconstituted with 80 µl of 0.1 M perchloric acid. Samples are analyzed directly using reverse-phase HPLC with a Whatman ODS-3 column (Whatman) and Pellosil C8 guard column (Alltech). The mobile phase for this system is 40% acetonitrile, 0.1 M sodium phosphate (pH 3.0) with 75 mM perchloric acid. Absorption is detected at 343 nm (Bergqvist, Y. et al., Chromat. 221, 2503 (1985)). Tyrosine hydroxylase (TH) activity is assayed by the tritium release method of Nagatsu, T. et al., Analyt. […] Supernatant fluid (50 µl) from brain homogenate (1 g tissue in 20 vol 50 mM Tris, H 7.4) are added to 7 ml glass scintillation vials containing 5 µl 6 DL-6-methyl-5,6,7,8-tetrahydropterine (2.8 mg ml^-1), 5 µl FeSO4 (2.78 mg ml ^-1) and 1 µC of ring labelled [^3H]tyrosine. Mixtures are incubated 30 minutes at 37°C and the reaction terminated by adding 50 µl 3 M Na2CO3, pH 11.6. Toluene/isoamyl alcohol scintillant (5 ml) is then added directly to the vial and the contents mixed for 10 seconds. The aqueous and organic phases are allowed to separate and the ^3H2O extracted into the organic phase determined.

[5] = system: monkeys (Macaca fascicularis); test: Neurological examination of MPTP-treated monkeys with or without chloroquine pretreatment; assay type: in vivo; settings: for Neurological Status: Reflexes / Neurological Status: Tone: control score 2
Excerpt: Four animals are naive controls. […] TABLE 3

[6] = long-term chloroquine (24 days) plus MPTP, monkeys L1-3
[7] = short-term chloroquine (12 days) plus MPTP, monkeys S1-3

Work on `NCCc1ccc(O)c(O)c1` [[^3H]DA, dopamine] yielded a Km [1] of 0.14 ± 0.02 µM.
With `C#CCN(C)Cc1ccccc1` [pargyline] the “evidence of striatal terminal degeneration” value (C57 black mice) was “None of three mice”.
In the case of `CCN(CC)CCCC(C)Nc1ccnc2cc(Cl)ccc12` (stereo not shown) [Chloroquine], the “Chloroquine level relative to that in other monkeys monitored” value [2] is reported as “* Chloroquine level is 36% of that in other monkeys monitored”, the Chloroquine in plasma ([2]; im, 4 mg/kg) is reported as 300 ng ml^- and the “CAUDATE HVA” value [3] is reported as 8.0 nmol per g tissue and 10.5 nmol per g tissue and 9.2 nmol per g tissue. For the same compound, the “PUTAMEN HVA” value [3] was 10.1 nmol per g tissue and 8.6 nmol per g tissue and 9.8 nmol per g tissue, the “CAUDATE TH (% control)” value [4] was 14.0 % control and 18.7 % control and 22.6 % control and the “PUTAMEN TH (% control)” value [4] was 20.0 % control and 23.3 % control and 29.8 % control. The “protection from MPTP-induced parkinsonian clinical symptoms” value ([5]; chloroquine 4 mg per kg i.m. pretreatment, 12 or 24 days) was “Five of the six monkeys”, the “Neurological Status: Reflexes” value [5, 6] was 1 and 2 and the “Neurological Status: Tone” value [5, 6] was 1.5 and 1 and 2. The “Neurological Status: Spontaneous Movement” value ([5]; short-term chloroquine 4 mg per kg i.m., pretreated 12 days, plus MPTP, monkeys S1-3, control score 10) was 3, the “Neurological Status: Total (x 5.26)” value ([5]; short-term chloroquine (12 days) plus MPTP, monkeys S1-3, control 100) was 47 and 58 and 42 and the “Neurological Status: Reflexes” value [5, 7] was 1 and 2. For the same compound, the “Neurological Status: Tone” value [5, 7] was 2 and 1 and the “Neurological Status: Tremor” value ([5]; short-term chloroquine (12 days) plus MPTP, monkeys S1-3, control score 5) was 3 and 4.
